Calls of active or inactive are those of the source. No cut-off for these calls is given here.
Experiments:
[1] = system: MIA PaCa-2; experiment: Cytotoxicity against human MIA PaCa-2 cells by MTT assay; type: functional, cell-based
[2] = Metabolic stability in mouse liver microsome assessed as half life measured up to 60 mins by LC-MS/MS analysis; type: ADME; settings: liver microsomes
[3] = Metabolic stability in human liver microsome assessed as half life measured up to 60 mins by LC-MS/MS analysis; type: ADME; settings: liver microsomes
[4] = system: PANC-1; experiment: Cytotoxicity against human PANC-1 cells by MTT assay; type: functional, cell-based
[5] = system: BXPC-3; experiment: Cytotoxicity against human BXPC-3 cells by MTT assay; type: functional, cell-based
[6] = system: Panc02; experiment: Cytotoxicity against mouse Panc02 cells by MTT assay; type: functional, cell-based
[7] = system: SU.86.86; experiment: Cytotoxicity against human SU-86-86 cells by MTT assay; type: functional, cell-based
[8] = Cytotoxicity against mouse KPC2 cells by MTT assay; type: functional, cell-based
[9] = system: HCT-116; experiment: Cytotoxicity against human HCT-116 cells assessed as cell death up to 1 uM incubated for 6 days in presence of NAC; type: functional, cell-based; settings: time 6.0 day
[10] = Drug metabolism in mouse plasma assessed as 5-(5-((6-fluoroquinolin-8-yl)carbamoyl)pyrazin-2-yl)-2-methyl-2,5-diazabicyclo[2.2.1]heptane 2-oxide metabolite formation by measuring Retention time measured after 1 hr by LC-MS/MS analysis; type: ADME, cell-free
[11] = Drug metabolism in mouse plasma assessed as 5-(2,5-diazabicyclo[2.2.1]heptan-2-yl)-N-(6-fluoroquinolin-8-yl)pyrazine-2-carboxamide metabolite formation by measuring Retention time measured after 1 hr by LC-MS/MS analysis; type: ADME, cell-free
[12] = Drug metabolism in mouse plasma assessed as 5-(5-methyl-2,5-diazabicyclo[2.2.1]hept-3-en-2-yl)pyrazine-2-carbaldehyde metabolite formation by measuring Retention time measured after 1 hr by LC-MS/MS analysis; type: ADME, cell-free
[13] = Drug metabolism in mouse plasma assessed as 6-fluoro-8-isocyanatoquinoline metabolite formation by measuring Retention time measured after 1 hr by LC-MS/MS analysis; type: ADME, cell-free
[14] = Drug metabolism in mouse plasma assessed as 6-fluoroquinolin-8-amine metabolite formation by measuring Retention time measured after 1 hr by LC-MS/MS analysis; type: ADME, cell-free
[15] = Drug metabolism in mouse plasma assessed as retention time measured after 1 hr by LC-MS/MS analysis; type: ADME, cell-free
[16] = system: MIA PaCa-2; experiment: Cytotoxicity against human MIA PaCa-2 cells assessed as cell death up to 0.1 uM incubated for 6 days in presence of NAC; type: functional, cell-based; settings: time 6.0 day
[17] = Toxicity in C57BL/6 mouse assessed as body weight loss at 20 to 40 mg/kg, ip administered for 28 days; type: organism-based; settings: in vivo, 672 h, dose 20-40 mg/kg, time 28 day

| SMILES | IC50 [1] | further results |
| --- | --- | --- |
| NC1CC2(C1)CN(c1cnc(C(=O)Nc3cc(F)cc4cccnc34)cn1)C2 | 5500 nM |  |
| C=CC(=O)N1CCN(c2cnc(C(=O)Nc3cc(C)cc4cccnc34)cn2)CC1 | 900 nM | half-life [2]: 3 min |
| CN1CNC(=O)C12CCN(c1cnc(C(=O)Nc3cc(F)cc4cccnc34)cn1)CC2 | 2900 nM |  |
| O=C(Nc1cc(F)cc2cccnc12)c1cnc(N2CC3CC2CO3)cn1 (configuration not stated) | 900 nM |  |
| Cc1cc(NC(=O)c2cnc(N3CCNCC3)cn2)c2ncccc2c1 | 900 nM | half-life [2]: 4 min |
| Cc1cc(NC(=O)CNCCN2CCN(C)CC2)c2ncccc2c1 | > 30000 nM |  |
| O=C(Nc1cc(F)cc2cccnc12)c1cnc(N2CCC(F)C2)cn1 (configuration not stated) | 2800 nM |  |
| O=C(Nc1cc(F)cc2cccnc12)c1cnc(N2CC3CC2CS3(=O)=O)cn1 (configuration not stated) | 1400 nM |  |
| O=C(Nc1cc(F)cc2cccnc12)c1cnc(N2CCC(O)C2)cn1 (configuration not stated) | 1000 nM |  |
| O=C(Nc1cc(F)cc2cccnc12)c1cnc(N2CCC(F)(F)CC2)cn1 | 3700 nM |  |
| O=C(Nc1cc(F)cc2cccnc12)c1cnc(N2CCOCC2)cn1 | 1000 nM |  |
| O=C(Nc1cc(F)cc2cccnc12)c1cnc(N2CCNCC2)cn1 | 400 nM | half-life [2]: 1.8 min; half-life [3]: > 60 min |
| O=C(Nc1cc(F)cc2cccnc12)c1cnc(N2CCNC(F)C2)cn1 (configuration not stated) | 3400 nM |  |
| CCN(CC)C(=S)SSC(=S)N(CC)CC [DISULFIRAM] | 100 nM | IC50 [4]: 100 nM; IC50 [5]: 300 nM; IC50 [6]: 100 nM; IC50 [7]: 300 nM; IC50 [8]: 200 nM; Activity [9]: Active |
| CN1CCN(c2cnc(C(=O)Nc3cccc4ccccc34)cn2)CC1 | > 30000 nM |  |
| CC1(N)CN(c2cnc(C(=O)Nc3cc(F)cc4cccnc34)cn2)C1 | 2100 nM |  |
| CN1CC2CC1CN2c1cnc(C(=O)Nc2cc(F)cc3cccnc23)cn1 (configuration not stated) | 100 nM | half-life [2]: 10.5 min; half-life [3]: > 60 min; Retention_time [10]: 6.44 min; Retention_time [11]: 6.22 min; Retention_time [12]: 6.19 min; Retention_time [13]: 6.23 min; Retention_time [14]: 6.23 min; Retention_time [15]: 6.22 min |
| Cc1cc(NC(=O)c2ccc(N3CCN(C)CC3)cc2)c2ncccc2c1 | 25800 nM |  |
| O=C(Nc1cc(F)cc2cccnc12)c1cnc(N2CCn3c(nnc3C(F)(F)F)C2)cn1 | 4100 nM |  |
| Cc1cc(C(=O)Nc2ccc(N3CCN(C)CC3)nc2)c2ncccc2c1 | 21500 nM |  |
| CC1CNCCCN1c1cnc(C(=O)Nc2cc(F)cc3cccnc23)cn1 (configuration not stated) | 1100 nM |  |
| O=C(Nc1cc(F)cc2cccnc12)c1cnc(N2C[C@@H](O)CC2=O)cn1 | 4700 nM |  |
| O=C(Nc1cc(F)cc2cccnc12)c1cnc(N2CCN3CCCC3C2)cn1 (configuration not stated) | 1700 nM |  |
| N[C@@H]1CCN(c2cnc(C(=O)Nc3cc(F)cc4cccnc34)cn2)C[C@@H]1F | 1100 nM |  |
| C[C@@H]1CN(c2cnc(C(=O)Nc3cc(F)cc4cccnc34)cn2)CCN1 | 500 nM |  |
| CN1CCN(c2cnc(C(=O)Nc3cc(F)cc4cccnc34)cn2)CC1 | 700 nM |  |
| CCN(CC)C1CCN(c2cnc(C(=O)Nc3cc(F)cc4cccnc34)cn2)CC1 | 500 nM |  |

| SMILES | IC50 [1] | further results |
| --- | --- | --- |
| O=C(Nc1cc(F)cc2cccnc12)c1cnc(N2CCNC(C(F)(F)F)C2)cn1 (configuration not stated) | 800 nM |  |
| O=C(Nc1cc(F)cc2cccnc12)c1cnc(N2CCC(N3CCCC3)CC2)cn1 | 500 nM |  |
| O=C(Nc1cc(F)cc2cccnc12)c1cnc(N2CCNC3(CC3)C2)cn1 | 800 nM |  |
| NC1CC2(CCN(c3cnc(C(=O)Nc4cc(F)cc5cccnc45)cn3)CC2)C1 | 3000 nM |  |
| NC1CCC2(CC1)CN(c1cnc(C(=O)Nc3cc(F)cc4cccnc34)cn1)C2 | 4700 nM |  |
| CN(NC(=O)CC(=O)NN(C)C(=S)c1ccccc1)C(=S)c1ccccc1 [ELESCLOMOL] | 20 nM | IC50 [4]: 30 nM; IC50 [5]: 50 nM; IC50 [6]: 10 nM; IC50 [7]: 20 nM; IC50 [8]: 200 nM; Activity [16]: Active |
| CN1C2CCC1CN(c1cnc(C(=O)Nc3cc(F)cc4cccnc34)cn1)C2 | 400 nM | half-life [2]: 13.5 min; half-life [3]: > 60 min |
| C[C@@H]1CN(c2cnc(C(=O)Nc3cc(F)cc4cccnc34)cn2)C[C@H](C)N1 | 300 nM |  |
| NC1CCCN(c2cnc(C(=O)Nc3cc(F)cc4cccnc34)cn2)C1 (configuration not stated) | 1800 nM |  |
| O=C(Nc1cc(F)cc2cccnc12)c1cnc(N2CC3CC2CN3)cn1 (configuration not stated) | 9400 nM |  |
| N[C@H]1CN(c2cnc(C(=O)Nc3cc(F)cc4cccnc34)cn2)C[C@H]1F | 300 nM | half-life [2]: > 60 min; half-life [3]: > 60 min |
| O=C(Nc1cccc2ccccc12)c1cnc(N2CCNCC2)cn1 | > 30000 nM |  |
| Cc1cc(NC(=O)c2cnc(N3CCN(C(=O)C4CC4)CC3)cn2)c2ncccc2c1 | 1200 nM |  |
| CS(=O)(=O)N1CCN(c2cnc(C(=O)Nc3cc(F)cc4cccnc34)cn2)CC1 | 3300 nM |  |
| O=C(Nc1cc(F)cc2cccnc12)c1cnc(N2CCC(O)(C(F)(F)F)CC2)cn1 | 2100 nM |  |
| NC1C2CCC1CN(c1cnc(C(=O)Nc3cc(F)cc4cccnc34)cn1)C2 (configuration not stated) | 800 nM | half-life [2]: > 60 min; half-life [3]: > 60 min; Activity [17]: Non-toxic |
| CC1(C)CN(c2cnc(C(=O)Nc3cc(F)cc4cccnc34)cn2)CCN1 | 300 nM |  |
| CN(C)C/C=C/C(=O)N1CCN(c2cnc(C(=O)Nc3cc(F)cc4cccnc34)cn2)CC1 | 4400 nM |  |
| Cc1cc(NC(=O)c2cnc(N3C[C@@H]4[C@@H](N)[C@@H]4C3)cn2)c2ncccc2c1 | 500 nM | half-life [2]: > 60 min |
| Cc1cc(NC(=O)c2cnc(N3CCC4(CC3)CO[C@@H](C)[C@H]4N)cn2)c2ncccc2c1 | 1000 nM | half-life [2]: 11.7 min |
| C[C@@H]1CNCCN1c1cnc(C(=O)Nc2cc(F)cc3cccnc23)cn1 | 400 nM |  |
| Cc1cc(NC(=O)c2cnc(N3CCN(S(C)(=O)=O)CC3)cn2)c2ncccc2c1 | 1000 nM |  |
| O=C(Nc1cc(F)cc2cccnc12)c1cnc(N2CC3C(C2)C3(F)F)cn1 (configuration not stated) | 5400 nM |  |
| N[C@@H]1CN(c2cnc(C(=O)Nc3cc(F)cc4cccnc34)cn2)CC12COC2 | 11600 nM |  |
| Cc1cc(NCc2cnc(N3CCNCC3)cn2)c2ncccc2c1 | 17600 nM |  |
| O=C(Nc1cc(F)cc2cccnc12)c1cnc(N2CCn3cnnc3C2)cn1 | > 30000 nM |  |
| N[C@@H]1CCCC12CCN(c1cnc(C(=O)Nc3cc(F)cc4cccnc34)cn1)CC2 | 1500 nM |  |

— ChEMBL document CHEMBL6109128, “Copper-KRAS-COX2 Axis: A Therapeutic Vulnerability in Pancreatic Cancer” (J Med Chem, 2025)
